Source: patent publication US9521845B2, “Beta-lactones as antibacterial agents” (LUDWIG-MAXIMILIANS-UNIVERSITÄT-MÜNCHEN, priority 2008, dated 2016)

Legend:
[1] = test system: bacterial proteomes; test: ABPP labeling of bacterial proteomes, labeling profile; format: binding; conditions: 50 μM probe
Text: The library of beta-lactones to be tested comprised compounds with aliphatic or aromatic substitutions varying in length and branching. To evaluate the target selectivity, the beta-lactones were screened against several gram-positive and gram-negative bacterial proteomes including Pseudomonas putida, Listeria welshimeri, Bacillus licheniformis, Bacillus subtilis and Escherichia coli, which are phylogenetically related to pathogenic strains. In addition, mouse liver cytosol was included as an eukaryotic reference proteome. Initial labeling experiments were carried out by adding individual probes at 50 μM concentration to the proteome which is sufficient to achieve full saturation of most targets. […] As an example, labeling of L. welshimeri cytosolic and membrane proteomes as well as B. subtilis cytosolic proteome with a subset of the most complementary probes is shown in FIGS. 9A and 9B. […] Most of the targeted proteins were of low abundance as shown by the direct comparison of the relative intensities observed with Coomassie staining vs. fluorescence scanning (FIG. 11).
(§1) Proteome samples were adjusted to a final concentration of 1 mg protein/mL by dilution in PBS prior to probe labeling. Experiments for visualization by 1D SDS-PAGE were carried out in 43 μL total volume and those for affinity enrichment in 1892 μL total volume, such that once CC reagents were added, the total reaction volume was 50 μL and 2 mL, respectively. Reactions were initiated by addition of the probe and allowed to incubate for 60 min at room temperature. For heat controls the proteome was denatured with 1 μL of 43% SDS at 95° C. for 6 min and cooled to room temperature before the probe was applied. Following incubation, reporter tagged-azide reagents (13 μM rhodamine-azide for analytical or 20 μM rhodamine-biotin-azide for preparative scale) were added followed by 1 mM TCEP and 100 μM ligand. Samples were gently vortexed and the cycloaddition initiated by the addition of 1 mM CuSO4. The reactions were incubated at room temperature for 1 h (Speers, J. Amer. Chem. Soc. 125 (2003), 4686).

[2] = biological target: T1, ClpP (Listeria monocytogenes serovar 1/2a, UniProt Q9RQI6); test: In vivo labeling of Listeria proteomes; format: cell-based; conditions: living L. monocytogenes EGDe, cytosol, 2 h incubation
T1 construct: endogenous in cells; host or cells: living Listeria monocytogenes EGDe, stationary phase
Experimental: For analytical and preparative in vivo studies, Listeria were grown to stationary phase and harvested by centrifugation at 4,000 rpm 1 h after entrance in the stationary phase (1.5 ml for analytical and 15 ml for preparative studies). The cell pellets were washed once with PBS and resuspended in 100 μL and 500 μL PBS for analytical and preparative studies, respectively. The cell suspensions were incubated for 2 h with varying concentrations of probe at room temperature. Probes were applied from DMSO stocks whereby DMSO never exceeded 2% in the final solution. For preparative experiments, 50 μM of the probes was added to the cells resuspended in PBS. After incubation, the cells were washed thoroughly three times with PBS to remove excess probe from the supernatant. Subsequently the cells were lysed in 100 μL (500 μL) PBS by sonication with a Bandelin Sonopuls with 3×20 sec. pulsed at 70% max. power. For analytical experiments 44 μL proteome were used to append a reporter tag via CC, such that once CC reagents were added, the total reaction volume was 50 μL. In preparative purposes the total volume of 500 μL it was consumed per experiment. Reporter tagged-azide reagents (13 μM rhodamine-azide for analytical or 20 μM rhodamine-biotin-azide for preparative scale) were added followed by 1 mM TCEP and 100 μM ligand. Samples were gently vortexed and the cycloaddition initiated by the addition of 1 mM CuSO4. The reactions were incubated at room temperature for 1 h. For analytical gel electrophoresis, 50 μL 2×SDS loading buffer were added and 50 μL applied on the gel. Fluorescence was recorded in a Fujifilm Las-3000 Fluoreszenz Darkbox with a Fujinon VRF 43LMD Lens, 605DF40 filter and 520 nm EPI excitation wavelength.

[3] = test system: LLO haemolytic activity of L. monocytogenes EGDe; test: LLO haemolytic activity testing of culture supernatants; format: cell-based, Listeria monocytogenes EGDe
Experimental: Overnight cultures of L. monocytogenes EGDe were harvested by centrifugation and resuspended in an equal volume of fresh BHB medium. In 1.5 mL Eppendorf tubes, 400 μL of BHB medium were inoculated with 4 μL of the resuspended Listeria culture and 4 μL of a corresponding beta-lactone stock in DMSO. The final concentrations were 800 μM, 400 μM, 200 μM, 100 μM and DMSO as control. The amount of DMSO in all tests was 1% of the medium. After mixing, the test tubes were incubated under continuous shaking at 200 rpm at 37° C. for 16 h. Then, cells were centrifuged and the supernatants filtered sterile by passing them through a 0.2 μm pore size filter. Haemolytic activity of LLO in the culture supernatants was quantitatively investigated according to a method described in J. Food Safety 1998, 18: 197-203 (incorporated herein by reference) with some modifications. In Nunclon™ 96-well plates with round shaped wells 100 μL of serial dilutions of the supernatants in PBS were added per well and incubated with 100 μL of 3% SRBC (sheep red blood cells) resuspended in PBS for 15 min at 37° C. under gentle shaking. The 96-well plates were centrifuged at 600 rpm for 5 min and the minimum dilution at which intact blood cells began to form a pellet was recorded. Controls with no lactone were set 100%. Buffer only controls and pure BHB medium yielded no haemolysis.

[4] = test system: lipase/acylhydrolase (LipAc); test: ABPP probe dose down in proteome, lipase/acylhydrolase labeling; format: binding; conditions: L. welshimeri proteome, concentration range 10 μM to 5 nM
Experimental: To estimate the strength of probe interactions with proteins in the proteome, we compared the reactivity profiles of selected beta-lactones across a broad concentration range from 10 μM to 5 nM.
as §1

[5] = test system: haemolysis abilities of Staphylococcus aureus; test: Blood agar plate-based haemolysis assay; format: cell-based; conditions: total amount of 250 nmol applied on Whatman Cards, 5% sheep blood agar, 37° C. over night
Experimental: FIG. 3: Blood agar plate-based assay illustrating that beta-lactones have an effect on the haemolysis abilities of Staphylococcus aureus. 2.5 μL of S. aureus LB dilution (OD600=0.13 corresponding to approx. 1×10^8 cfu/ml) and 2.5 μL DMSO/lactone in DMSO were applied on Whatman Cards placed on 5% sheep blood agar plates (Heipha Diagnostika, Eppelheim, Germany) and incubated at 37° C. over night. A) Direct comparison of beta-lactones as shown in FIG. 2 at a total amount of 250 nmol applied on Whatman Cards. B) Dose down with beta-lactone compounds D3, E2 and G2 at applied concentrations of 100 mM, 50 mM, 25 mM, 12.5 mM, 6.25 mM and 0 mM (corresponding to total amounts of 250 nmol, 125 nmol, 62.5 nmol, 31.3 nmol, 15.6 nmol and 0 nmol, respectively).
2.5 μl, of S. aureus LB dilution (OD600 0.13 corresponding to approx. 1×10^8 cfu/ml) and 2.5 μL DMSO/beta-lactone in DMSO were applied on Whatman Cards placed on 5% sheep blood agar plates (Heipha Diagnostika, Eppelheim, Germany) and incubated at 37° C. over night. FIG. 3A directly compares the β-lactones at a total amount of 250 nmol applied on Whatman Cards. […] For D3 almost no haemolysis is observed down to a total amount of 125 nmol lactone. FIG. 5 illustrates the haemolytic activity of beta-lactone compounds D3, E2 and G2 plotted against the total amount of the respective beta-lactone, whereby a haemolysis zone size of 1.5 mm was set as 100% haemolytic activity. The data shown in FIG. 5 has been corroborated by further experimental testing.
Haemolysis was tested on blood agar plates (5% sheep blood; Heipha Diagnostika, Eppelheim, Germany). Sterile circles of Whatman cards (No. Y) with 5 mm diameter were placed on agar plates and inoculated with 2.5 μL of the corresponding beta-lactone/DMSO and 2.5 μL stationary phase culture of S. aureus diluted to […]. The plates were incubated over night at 37° C. and the diameters of the zones around the bacterial colonies were precisely measured using a vernier caliper.

[6] = test system: proteolysis abilities of Staphylococcus aureus; test: Milk agar plate-based proteolysis assay; format: cell-based; conditions: for proteolytic activity of S. aureus: total amount of 250 nmol applied on Whatman Cards, 1% skim milk LB agar, 37° C. over night
Experimental: FIG. 6: Milk agar plate-based assay illustrating that beta-lactones have an effect on the proteolysis abilities of Staphylococcus aureus. 2.5 μL of S. aureus LB dilution (OD600=0.13 corresponding to approx. 1×10^8 cfu/ml) and 2.5 μL DMSO/beta-lactone in DMSO were applied on Whatman Cards placed on 1% skim milk LB agar plates and incubated at 37° C. over night. A) Direct comparison of beta-lactones as shown in FIG. 2 at a total amount of 250 nmol applied on Whatman Cards. B) Dose down with beta-lactones D3, E2 and G2 at applied concentrations of 100 mM, 50 mM, 25 mM, 12.5 mM, 6.25 mM and 0 mM (corresponding to total amounts of 250 nmol, 125 nmol, 62.5 nmol, 31.3 nmol, 15.6 nmol and 0 nmol, respectively). C) Proteolysis zone size plotted against the total amount of the respective beta-lactone.
2.5 μL of S. aureus LB dilution (OD600=0.13 corresponding to approx. 1×10^8 cfu/ml) and 2.5 μL DMSO/beta-lactone in DMSO were applied on Whatman Cards placed on 1% skim milk LB agar plates and incubated at 37° C. over night. FIG. 6A directly compares the β-lactones at a total amount of 250 nmol applied on Whatman Cards. […] For D3 and E2 almost no proteolysis is observed down to a total amount of 125 nmol of the respective beta-lactone. FIG. 6C illustrates that the proteolysis zone size plotted against the total amount of beta-lactone visualizes the strong effects particularly of D3 and E2.

[7] = test system: serine proteases; test: Competitive labeling with PMSF; format: binding; conditions: 100 fold excess, 15 min prior to beta-lactone probes
Experimental: (§2) FIG. 13: Active site competition assays and IC50. A) Competition experiment with KAS II with and without 100 fold excess of cerulenin in presence of the beta-lactone probe G2. B) Competition experiments with several serine proteases with and without 100 fold excess of PMSF in presence of the corresponding beta-lactone probes (LWC: L. welshimeri cytosol, LWM: L. welshimeri membrane, BSC: B. subtilis cytosol). C) IC50 of 5 μM for SFGH. For a list of abbreviations, please refer to Example 6, Table 1. The term PNB is also referred to herein as PNBE.
(§3) In competitive assays, a 100 fold excess of PMSF or cerulenin was added to the proteome 15 min prior to beta-lactone addition.

[8] = test system: KAS II; test: Competitive labeling with cerulenin; format: binding; conditions: 100 fold excess, 15 min prior to beta-lactone probe G2
Experimental: as §2, §3

T1 sequence (Q9RQI6 whole entry): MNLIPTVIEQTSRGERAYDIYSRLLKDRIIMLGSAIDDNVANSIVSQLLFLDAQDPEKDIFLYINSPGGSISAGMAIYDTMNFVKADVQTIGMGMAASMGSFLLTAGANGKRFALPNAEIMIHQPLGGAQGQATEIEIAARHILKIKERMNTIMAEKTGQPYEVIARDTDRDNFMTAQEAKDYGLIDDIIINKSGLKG

## C#CCCC[C@H]1OC(=O)[C@H]1C(C)(C)C (relative stereo) [L1, cis-3-dimethylethyl-4-(4-pentyn-1-yl)oxetan-2-one]
[1]
  enzyme labeling in proteomes: decreased the number of specific labeling events

## C#CCCC[C@@H]1OC(=O)[C@H]1CCCCCCCC(=O)Sc1ccccc1 (relative stereo) [N1, trans-S-phenyl 8-(2-oxo-4-(4-pentyn-1-yl)oxetan-3-yl)octanethioate]
[2]
  ClpP labeling (probe potency ranking): most potent probes
[3]; Listeria monocytogenes, Erythrocyte, cultures grown 16 h with lactone, sheep red blood cells, read-out: EC50 of reduction of LLO haemolytic activity
  EC50: < 100 µM

## C#CCCC[C@@H]1OC(=O)[C@H]1c1ccc2ccccc2c1 (relative stereo) [P1, trans-3-(2-naphthyl)-4-(4-pentyn-1-yl)oxetan-2-one, reference compound]
[4]
  probe concentration down to which LipAc is labeled: 160 nM

## C#CCCCC1CC(=O)O1 (stereo not shown) [A1, 4-(4-Pentyn-1-yl)oxetan-2-one]
[1]
  enzyme labeling in proteomes: poor in enzyme labeling

## C#CCCCC1OC(=O)C1c1ccc(OC)cc1 (stereo not drawn) [E2, trans-3-(4-methoxyphenyl)-4-(4-pentyn-1-yl)oxetan-2-one]
[5]
  haemolytic activity of S. aureus: strongly reduce
[6]; dose down 250-15.6 nmol
  total amount down to which almost no proteolysis is observed: 125 nmol
[6]
  proteolytic activity of S. aureus: strongly reduce

## C#CCCCC1OC(=O)C1(C)C (stereo not drawn) [M1, trans-3,3-dimethyl-4-(4-pentyn-1-yl)oxetan-2-one, reference compound]
[2]
  ClpP labeling (probe potency ranking): did not label and inhibit ClpP
[3]; control probe
  effect on haemolysis: no effect
[3]; fourfold dilution of supernatant, even at 800 μM
  lysis of blood cells by culture supernatant: complete lysis
[5]
  haemolytic activity of S. aureus: no effect
[6]
  proteolytic activity of S. aureus: no effect

## C#CCCCC1OC(=O)C12CCCCC2 (stereo not shown) [O1, 4-(4-pentyn-1-yl)oxetan-2-one-3-spirocyclohexane]
[1]
  enzyme labeling in proteomes: decreased the number of specific labeling events

## O=S(=O)(F)Cc1ccccc1 [PMSF]
[7]
  effect of pre-incubation on probe labeling of serine proteases: prevented subsequent probe labeling

## C/C=C/C/C=C/CCC(=O)[C@H]1O[C@H]1C(N)=O [cerulenin]
[8]
  effect of pre-incubation on probe labeling of KAS II: prevented subsequent probe labeling
